Experimental data published in patent US10363284B2, “β-hairpin peptidomimetics” (POLYPHOR AG, priority 2012, dated 2019).
Positions of bridges follow the written chain, without caps; N, C: chain ends. Non-standard residues stand in square brackets, D forms with d. Residues, ends and D or L forms follow the SMILES beside them. dLys(iPr) = CC(C)NCCCC[C@@H](N)C(=O)O; Lys(iPr) = CC(C)NCCCC[C@H](N)C(=O)O; Orn(iPr) = CC(C)NCCC[C@H](N)C(=O)O; Ac3c = NC1(C(=O)O)CC1

Experiment: Drug loading calculations via maintenance dose rate
Settings: CLiv-mouse scaled by 0.127 (GFR human/mouse)
Experimental: The drug load for an implant comprising a peptide of the invention was calculated following the basic principles in pharmacokinetics (see also J. Gabrielsson, D. Weiner, “Pharmacokinetics and Pharmaco-dynamics Data Analysis: Concepts and Applications”, 4th edition, Swedish Pharmaceutical Press, Stockholm, Sweden, 2006) whereby the maintenance dose rate (rate of infusion, Rin) can be defined as the rate at which a drug is to be administered to reach a steady state of a certain dose in the plasma. The maintenance dose rate can be expressed using the correlation Rin [g/(h*kg)]=CLiv, [L/(h*kg)]×Css,eff [g/L], wherein CLiv, is the clearance (i.v.—admin.) and Css,eff the effective concentration of the drug in the plasma at steady state considering an efficacy margin A: Css,eff[g/L]=A×(IC50/fu)×MW [(Mol/L)*(g/Mol)]. Therefore, the total amount of a drug loaded into an implant providing for a constant effective concentration of that drug in the plasma for a certain period of time in a subject of a certain body weight can be calculated by applying the following correlation: Drugload [g/subject]=Rin [g/(h*kg)]×duration [h]×BW [kg/subject].
Further pre-conditions are an efficacy margin of A=3, a study duration of 672 h (28 days) and a body weight of a human subject of 70 kg. […]

In the case of `CC(C)NCCCC[C@@H]1NC(=O)[C@H](CCC(N)=O)NC(=O)[C@H](Cc2ccc(O)cc2)NC(=O)[C@@H]2CSSC[C@H](NC(=O)[C@H](Cc3ccc(O)cc3)NC(=O)[C@H](Cc3c[nH]cn3)NC(=O)[C@H](Cc3ccc(O)cc3)NC(=O)[C@@H]3CCCN3C(=O)[C@H]3CCCN3C1=O)C(=O)N[C@@H](CO)C(=O)NC1(CC1)C(=O)N1CCC[C@@H]1C(=O)N[C@@H](CCCNC(C)C)C(=O)N[C@@H](CCCNC(=N)N)C(=O)N[C@@H](Cc1ccc(O)cc1)C(=O)N2` [Ex. 2, cyclo(-Tyr^1-His^2-Tyr^3-Cys^4-Ser^5-Acc^6-^DPro^7-Orn(iPr)^8-Arg^9-Tyr^10-Cys^11-Tyr^12-Gln^13-Lys(iPr)^14-^DPro^15-Pro^16-), disulfide bond between Cys^4 and Cys^11] (cyclo(YHYCS[Ac3c][dP][Orn(iPr)]RYCYQ[Lys(iPr)][dP]P); disulfide 4-11), the “CLiv, human (allometric scaled)” value is reported as 1.45 mL/min/kg.

For `CC(C)NCCCC[C@@H]1NC(=O)[C@H](CCC(N)=O)NC(=O)[C@H](Cc2ccc(O)cc2)NC(=O)[C@@H]2CSSC[C@H](NC(=O)[C@H](Cc3ccc(O)cc3)NC(=O)[C@H](Cc3c[nH]cn3)NC(=O)[C@H](Cc3ccc(O)cc3)NC(=O)[C@@H]3CCCN3C(=O)[C@@H](CCCCNC(C)C)NC1=O)C(=O)N[C@@H](CO)C(=O)N[C@@H](C)C(=O)N1CCC[C@@H]1C(=O)N[C@@H](CCCNC(C)C)C(=O)N[C@@H](CCCNC(=N)N)C(=O)N[C@@H](Cc1ccc(O)cc1)C(=O)N2` [Ex. 1, cyclo(-Tyr^1-His^2-Tyr^3-Cys^4-Ser^5-Ala^6-^DPro^7-Orn(iPr)^8-Arg^9-Tyr^10-Cys^11-Tyr^12-Gln^13-Lys(iPr)^14-^DLys(iPr)^15-Pro^16-), disulfide bond between Cys^4 and Cys^11] (cyclo(A[dP][Orn(iPr)]RYCYQ[Lys(iPr)][dLys(iPr)]PYHYCS); disulfide 6-15), the “CLiv, human (allometric scaled)” value was 2.08 mL/min/kg.
